Patent US20240336620A1, “PROTEIN D[…] AND METHODS OF USE” (AnHorn Medicines Co., Ltd., priority 2022, published 2024)

Each compound was assayed against T1, androgen receptor (Homo sapiens, UniProt P10275, T878A) (assay: Androgen receptor degradation assay using Western blot analysis). Settings: LNCaP·FGC cells, concentration needed for 50% AR degradation, serial dilutions.
T1 construct: host or cells: LNCaP·FGC cells
T1 sequence (P10275 1-920 T878A): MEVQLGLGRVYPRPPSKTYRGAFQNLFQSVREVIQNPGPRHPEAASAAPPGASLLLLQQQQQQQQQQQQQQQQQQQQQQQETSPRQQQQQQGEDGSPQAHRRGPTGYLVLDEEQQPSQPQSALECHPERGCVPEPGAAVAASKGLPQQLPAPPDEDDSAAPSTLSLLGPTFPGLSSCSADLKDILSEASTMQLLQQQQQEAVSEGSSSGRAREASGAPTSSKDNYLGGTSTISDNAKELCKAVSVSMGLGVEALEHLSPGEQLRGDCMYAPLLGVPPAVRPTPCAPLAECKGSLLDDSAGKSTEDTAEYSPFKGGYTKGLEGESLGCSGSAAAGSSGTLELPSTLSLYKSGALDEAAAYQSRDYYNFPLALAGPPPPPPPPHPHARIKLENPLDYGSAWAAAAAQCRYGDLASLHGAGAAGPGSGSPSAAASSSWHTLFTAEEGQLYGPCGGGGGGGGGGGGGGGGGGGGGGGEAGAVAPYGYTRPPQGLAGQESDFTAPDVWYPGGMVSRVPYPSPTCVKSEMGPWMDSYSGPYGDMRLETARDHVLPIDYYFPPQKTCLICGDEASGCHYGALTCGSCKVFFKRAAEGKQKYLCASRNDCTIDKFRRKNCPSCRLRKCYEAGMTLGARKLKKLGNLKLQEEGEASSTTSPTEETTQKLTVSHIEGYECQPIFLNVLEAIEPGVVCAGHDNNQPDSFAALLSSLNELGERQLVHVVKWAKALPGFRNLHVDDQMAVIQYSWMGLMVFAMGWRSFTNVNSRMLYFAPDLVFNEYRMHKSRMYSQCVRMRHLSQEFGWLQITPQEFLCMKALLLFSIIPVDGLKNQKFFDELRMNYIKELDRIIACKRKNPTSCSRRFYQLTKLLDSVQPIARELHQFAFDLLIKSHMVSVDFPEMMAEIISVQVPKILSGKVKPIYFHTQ
Format: cell-based
Method: LNCaP·FGC cells (Cat. 60088, Bioresource Collection and Research Center, 15 HsinChu City, Taiwan R.O.C.) grown in RPMI 1640 (Cat. 31800022, Thermo Fisher Scientific, Waltham, Massachusetts, United States) medium supplemented with 10% FBS (Cat. 10437028, Thermo Fisher Scientific, Waltham, Massachusetts, United States), 10 mM HEPES (Cat. 15630080, Thermo Fisher Scientific, Waltham, Massachusetts, United States) and 1 mM sodium pyruvate (Cat. 11360070, Thermo 20 Fisher Scientific, Waltham, Massachusetts, United States) were seeded at 2×10^5 cells per well in 24-well tissue culture plates. […] After the treatment, the cells were harvested, washed by PBS, and lysed with RIPA lysis and extraction buffer (Cat. 25 89900, Thermo Fisher Scientific, Waltham, Massachusetts, United States) supplemented with Halt Protease Inhibitor Cocktail (Cat. 78430, Thermo Fisher Scientific, Waltham, Massachusetts, United States) to collect protein samples. Cells not treated with any of the above-mentioned compounds are used as a negative control.
The protein samples were separated by polyacrylamide gel electrophoresis, and then transferred to a piece of Immuno-Blot PVDF membrane (Cat. 1620177, Bio-Rad Laboratories, Hercules, California, United States). The presence of androgen receptor in the protein samples was detected by standard Western blotting procedure using an anti-AR antibody (1:2000 dilution) (Cat. 5153, Cell Signaling Technology Inc., Danvers, Massachusetts, United States) and a goat anti-rabbit HRP-conjugated secondary antibody (1:5000 dilution) (C04003, Croyez Bioscience Co., Ltd., Taipei City, Taiwan R.O.C.). The internal loading control GAPDH was detected using a mouse monoclonal antibody (1:5000) (GTX627408, GeneTex International Corp., HsinChu City, Taiwan R.O.C.) and a goat anti-mouse HRP-conjugated secondary antibody (1:5000 dilution) (C04001, Croyez Bioscience Co., Ltd., Taipei City, Taiwan R.O.C.). Chemiluminescence signals were developed using Clarity Western ECL substrate (Cat. 1705061, Bio-Rad Laboratories, Hercules, California, United States) and detected with digital imager iBright FL1500 (Invitrogen Corp., Carlsbad, California, United States).
Compounds 1-16 were selected and serial diluted (1Ox) with RPMI medium for treating LNCaP·FGC cells. A calibration curve was determined by the serial diluted samples for each compound, and the concentration needed for 50% AR degradation (AR DC50) for each compound was calculated. “Cpd. ID” indicates the compound ID number in Table 1.

For `Cn1c2c(c3ccc(N4CCN(CC5CN(c6ccc(-c7ccc8c(c7)C(C)(C)C(=O)N8c7ccc(C#N)c(Cl)c7)c(F)n6)C5)CC4)cc31)C(=O)N(C1CCC(=O)NC1=O)C2=O` (stereo not shown) [Compound 1], which DC50 is on record?
The DC50 was 0.2 to 1 µM.

Which DC50 does the source give for `Cn1c2c(c3ccc(OC4CCN(CC5CN(c6ccc(-c7ccc8c(c7)C(C)(C)C(=O)N8c7ccc(C#N)c(Cl)c7)c(F)n6)C5)CC4)cc31)C(=O)N(C1CCC(=O)NC1=O)C2=O` (stereo not shown) [Compound 2] here?
Its DC50 is ≥ 1 µM.

With `CCn1c2c(c3ccc(C4CCN(CC5CN(c6ccc(-c7ccc8c(c7)C(C)(C)C(=O)N8c7ccc(C#N)c(Cl)c7)c(F)n6)C5)CC4)cc31)C(=O)N(C1CCC(=O)NC1=O)C2=O` (stereo not shown) [Compound 3] as the compound, how does the DC50 read?
Its DC50 is 0.2 to 1 µM.

For `CCn1c2c(c3ccc(OCCCN4CCN(c5ccc(-c6ccc7c(c6)C(C)(C)C(=O)N7c6ccc(C#N)c(Cl)c6)c(F)n5)CC4)cc31)C(=O)N(C1CCC(=O)NC1=O)C2=O` (stereo not shown) [Compound 4], which DC50 is on record?
Its DC50 is 0.2 to 1 µM.

With `Cn1c2c(c3ccc(N4CCN(CC5CCN(c6ccc(-c7ccc8c(c7)C(C)(C)C(=O)N8c7ccc(C#N)c(Cl)c7)c(F)n6)CC5)CC4)cc31)C(=O)N(C1CCC(=O)NC1=O)C2=O` (stereo not shown) [Compound 5] as the compound, how does the DC50 read?
Its DC50 is ≥ 1 µM.

For `Cn1c2c(c3ccc(C4CCN(CC5CCN(c6ccc(-c7ccc8c(c7)C(C)(C)C(=O)N8c7ccc(C#N)c(Cl)c7)c(F)n6)CC5)CC4)cc31)C(=O)N(C1CCC(=O)NC1=O)C2=O` (stereo not shown) [Compound 8], which DC50 is on record?
Its DC50 is 0.2 to 1 µM.

With `CCn1c2c(c3ccc(N4CCN(CC5CCN(c6ccc(-c7ccc8c(c7)C(C)(C)C(=O)N8c7ccc(C#N)c(Cl)c7)c(F)n6)CC5)CC4)cc31)C(=O)N(C1CCC(=O)NC1=O)C2=O` (stereo not shown) [Compound 9] as the compound, how does the DC50 read?
Its DC50 is 0.2 to 1 µM.

For `Cn1c2c(c3ccc(N4CCN(CC5CCN(c6ccc(-c7ccc8c(c7)C(C)(C)C(=O)N8c7ccc(C#N)c(Cl)c7)nn6)CC5)CC4)cc31)C(=O)N(C1CCC(=O)NC1=O)C2=O` (stereo not shown) [Compound 11], which DC50 is on record?
The DC50 was ≥ 1 µM.

For `CCn1c2c(c3ccc(N4CCN(CC5CN(c6ccc(-c7ccc8c(c7)C(C)(C)C(=O)N8c7ccc(C#N)c(Cl)c7)c(F)n6)C5)CC4)cc31)C(=O)N(C1CCC(=O)NC1=O)C2=O` (stereo not shown) [Compound 12], which DC50 is on record?
Its DC50 is < 0.2 µM.

How did the DC50 turn out when `CCn1c2c(c3ccc(OCCN4CCN(c5ccc(-c6ccc7c(c6)C(C)(C)C(=O)N7c6ccc(C#N)c(Cl)c6)c(F)n5)CC4)cc31)C(=O)N(C1CCC(=O)NC1=O)C2=O` (stereo not shown) [Compound 15] was run?
Its DC50 is 0.2 to 1 µM.
